Data reported in patent US20240418707A1, “SELF-ORGANIZING NEURO-MUSCULAR JUNCTION CELL CULTURE MODEL” (Max-Delbrück-Centrum für Molekulare Medizin in der …, priority 2023, published 2024).
“Also recorded” adds a separate entry of the source.

What was measured:
Type in all cases: cell-based, human
[1] = system: skeletal muscles in the soNMJ model; test: Contraction analysis of soNMJ model by live imaging; conditions: soNMJ model day 75, control hPSC lines (H1, XM001); 10 μM curare
Procedure: (§1) Three different regions of the same coverslip were recorded for contraction analysis using a Leica SP8 confocal microscope. Each region was recorded twice for 3 minutes using brightfield with 20× zoom. To quantify the muscle contraction, each movie was analyzed individually using MuscleMotion (an open source ImageJ Macro). A reference frame was automatically detected by MuscleMotion to measure the contraction as a variation in pixel over time. The results were then plotted in Prism8 (GraphPad).

[2] = system: skeletal muscle fibers and neurons of the soNMJ model; test: Calcium imaging with Fluo8 in neuromuscular cultures; conditions: day 75, Fluo8-AM, 10 μM curare
Procedure: Between day 50 and day 100, the cells were incubated at 37° C. with […] of the cell permeant calcium indicator Fluo-8 AM (Abcam). After 30 minutes of incubation, the cells were washed two times with culture medium (NB without phenol red) and left to recover for 15 min in the incubator prior to the start of any optical recording. During acquisition, the samples were kept at 37° C. with 5% CO2. Fluorescent time series images were acquired with a CSU-W1 spinning disk confocal microscope. The calcium transients were recorded for 2-3 minutes at 20 frames per second in three different conditions: without any treatment, with addition of […] Acetylcholine (Sigma Aldrich) and with addition of 10 μM Curare (Sigma Aldrich).
Analysis of the calcium activity was performed by measuring the variation of fluorescence intensity in each ROI with ImageJ. ROIs were detected manually, and neurons and muscle cells could be distinguished by morphology. The variation of fluorescence intensity for each individual ROI was then plotted in Prism 8 (GraphPad).

NMJs of the soNMJ model = test: Optogenetic (Channelrhodopsin) stimulation of neurons with muscle contraction readout
Procedure: For specifically stimulating neurons in the neuromuscular culture, cells were incubated with 1E+9 VG/mL AAV8-hSyn-hChR2 (H134R)-GFP for 48 h at day 50. After 3-4 weeks, the expression of ChR2 (H134R)-GFP was assessed using a confocal microscope. Cultures were transferred to the electrophysiology setup described above, and continuously superfused with HEPES-buffered extracellular solution at room temperature. Bright-field images of 2048×2048 were acquired at 10 Hz using an sCMOS camera (Photometrics Prime BSI Express) with 50 ms exposure time. Every 50 s, ChR2-expressing neurons were optically stimulated with three 5-ms flashes of 470 nm light at 10 Hz, with 10 mW/mm2 intensity. For the analysis, the muscle contraction recorded in brightfield was quantified using MuscleMotion (described below), plotted in Prism8 (GraphPad) and correlated to the light […] pulses.
as §1

[3] = system: SMA type I hiPSC derived soNMJ cultures; test: Muscle contraction analysis in SMA type I soNMJ model; conditions: day 50, 10 μM, compared to H1 control
Procedure: as §1

Substance: curare
- skeletal muscle contraction [1]: blocked the contraction of the skeletal muscles
- calcium activity / firing of the neurons [2]: without affecting the firing of the neurons
- calcium activity in skeletal muscle fibers [2]: blocked the calcium activity in the skeletal muscle fibers; also recorded: abolished the calcium activity in the skeletal muscles
- muscle contraction upon optogenetic stimulation of ChR2-GFP+ neurons (NMJs of the soNMJ model; day 75, 470 nm light pulse, 10 μM curare): inhibition of muscle contraction even upon optogenetic stimulation; also recorded: blocked the optogenetic stimulation of the skeletal muscles
- muscle contraction response to blue light stimulation after washout (NMJs of the soNMJ model; day 75, after washing out curare): restored by washing out curare
- muscle contraction in SMA type I soNMJ [3]: did not respond; also recorded: failed to stop spontaneous muscle activity
